# In publication PMC8509398, “Proteolytic Cleavage of Bioactive Peptides and Protease-Activated Receptors in Acute and Post-Colitis” (International Journal of Molecular Sciences, 2021):
# Residues, ends and D or L forms follow the SMILES beside them.
# Legend:
# [1] = target: T1, cathepsin G (Homo sapiens, UniProt P08311); assay: Cleavage of peptides by purified cathepsin G, MALDI-TOF/TOF; conditions: 25 nM protease, 10 µM peptide
# T1 sequence (P08311 21-255): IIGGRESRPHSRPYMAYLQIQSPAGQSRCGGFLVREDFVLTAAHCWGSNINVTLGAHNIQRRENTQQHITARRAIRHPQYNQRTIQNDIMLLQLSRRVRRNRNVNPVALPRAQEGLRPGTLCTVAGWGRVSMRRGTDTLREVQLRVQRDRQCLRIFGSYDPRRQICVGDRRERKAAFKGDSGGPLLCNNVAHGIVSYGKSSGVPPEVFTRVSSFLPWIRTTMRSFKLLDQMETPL
# Excerpt: (§1) Trypsin-like proteases included in the experiments are trypsin-1, -2 and -3, tryptase (Enzo LifeSciences), thrombin (Sigma-Aldrich) and cathepsin G (Sigma-Aldrich). Trypsin-1, -2 and -3 were produced as described by Koistinen et al. and Wu et al.. Two elastase-like enzymes, neutrophil elastase (Enzo LifeSciences, Farmingdale, NY, USA) and pancreatic elastase I (Sigma-Aldrich) were included as well. All enzymes were from human origin except for pancreatic elastase from porcine pancreas.
# (§2) Reaction mixtures with purified enzymes were compiled in an identical way. […] Substance P was added as the standard peptide except for the reaction mixtures with substance P or bradykinin as the peptide of interest, where angiotensin II (Bachem) was added.
# (§3) The TFA mixtures were thawed on ice and desalted using C18 zip-tips (Merck Millipore®, Burlington, MA, USA) with a capacity of 5 µg protein. Retained peptide fragments were eluted directly on the MALDI target plate. Next, 0.5 µL of a 2.5 mg/mL α-cyano-4-hydroxycinnamic acid (Sigma-Aldrich) matrix solution (in 70% acetonitrile, 0.1% TFA) was spotted on top of the sample. A 6-Peptide mixture Kit (AB Sciex, Framingham, MA, USA) containing bradykinin (2–9), angiotensin I, glu1-fibrinopeptide, ACTH (1–17), ACTH (18–39) and ACTH (7–38) was diluted with matrix and spotted on the plate as well.
# (§4) MS and MS/MS data for peptide fragment identification were obtained with a MALDI-TOF/TOF instrument (4800 MALDI TOF/TOF™, Applied Biosystems, Waltham, MA, USA) and instrument parameters were set using 4000 Series Explorer™ software. MS spectra were recorded in positive reflector mode in a mass range from 500 to 4000 Da and laser intensity of 4500–4800 Hz. The spectra were calibrated using the calibration mixture mentioned above to a mass tolerance of 0.1 Da. MS/MS spectra were recorded with high-energy collision-induced dissociation and the laser intensity was increased by 10%.
# (§5) Identified fragments were confirmed using the MS/MS spectra and mMass 5.5.0 by Martin Strohalm. The relative intensities of the fragments were calculated as the ratio of the intensity of the peak of interest to the intensity of the peak of the standard peptide.
# [2] = target: T2, trypsin-3 (Homo sapiens, UniProt P35030); assay: Cleavage of peptides by purified trypsin-3, MALDI-TOF/TOF; conditions: 25 nM protease, 10 µM peptide; for Incubation time at which the first cleavage or decrease of the full-length peptide was observed, trypsin-3: 37 °C, time points 2, 5, 10, 30 min
# T2 sequence (P35030 1-304): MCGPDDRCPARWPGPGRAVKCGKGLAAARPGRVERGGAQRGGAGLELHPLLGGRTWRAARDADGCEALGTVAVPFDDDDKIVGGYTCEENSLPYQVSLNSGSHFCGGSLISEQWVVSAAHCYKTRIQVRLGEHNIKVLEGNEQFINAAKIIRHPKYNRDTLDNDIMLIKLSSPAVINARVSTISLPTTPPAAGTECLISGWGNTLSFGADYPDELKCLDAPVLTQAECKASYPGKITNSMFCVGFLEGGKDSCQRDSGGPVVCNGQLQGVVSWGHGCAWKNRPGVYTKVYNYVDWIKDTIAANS
# Excerpt: as §1
# (§6) Reaction mixtures with purified enzymes were compiled in an identical way. Each mixture contained an equimolar concentration of protease (25 nM based on) and 10 µM peptide of interest and was incubated for 2, 5, 10 and 30 min at 37 °C. Substance P was added as the standard peptide except for the reaction mixtures with substance P or bradykinin as the peptide of interest, where angiotensin II (Bachem) was added.
# as §3
# as §4, with “10%. Precursor mass m/z 1570.65 (Glu1-Fibrinopeptide from the calibration mixture) was used to calibrate the MS/MS spectra to a mass tolerance of 0.1 Da.” for “10%.”
# (§7) MS and MS/MS spectra were processed using DataExplorer™ software and the obtained output files were uploaded in the MS-PEP data analyzer (https://bioit.shinyapps.io/PARs/ accessed 10/08/2020) for peptide fragment identification. Identified fragments were confirmed using the MS/MS spectra and mMass 5.5.0 by Martin Strohalm. The relative intensities of the fragments were calculated as the ratio of the intensity of the peak of interest to the intensity of the peak of the standard peptide.
# [3] = target: T3, neutrophil elastase (Homo sapiens, UniProt P08246); assay: Cleavage of peptides by purified neutrophil elastase, MALDI-TOF/TOF; conditions: 25 nM protease, 10 µM peptide; for Incubation time at which the first cleavage or decrease of the full-length peptide was observed, neutrophil elastase: 37 °C, time points 2, 5, 10, 30 min
# T3 sequence (P08246 30-267): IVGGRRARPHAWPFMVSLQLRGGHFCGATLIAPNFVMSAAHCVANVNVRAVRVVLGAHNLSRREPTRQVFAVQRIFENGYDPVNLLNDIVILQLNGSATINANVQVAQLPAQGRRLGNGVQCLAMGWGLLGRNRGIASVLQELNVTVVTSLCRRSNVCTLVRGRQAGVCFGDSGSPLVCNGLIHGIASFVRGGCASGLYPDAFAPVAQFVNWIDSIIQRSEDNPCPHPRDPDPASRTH
# Excerpt: as §1, §2, §3, §4, §5
# [4] = target: trypsin-2 (Homo sapiens, UniProt P07478); assay: Cleavage of peptides by purified trypsin-2, MALDI-TOF/TOF; conditions: 25 nM protease, 10 µM peptide; for Incubation time at which the first cleavage or decrease of the full-length peptide was observed, trypsin-2: 37 °C, time points 2, 5, 10, 30 min
# Excerpt: as §1, §6, §3
# as §4, with “10%. Precursor mass m/z 1570.65 (Glu1-Fibrinopeptide from the calibration mixture) was used to calibrate the MS/MS spectra to a mass tolerance of 0.1 Da.” for “10%.”
# as §7
# [5] = target: thrombin (Homo sapiens, UniProt P00734); assay: Cleavage of peptides by purified thrombin, MALDI-TOF/TOF; conditions: 25 nM protease, 10 µM peptide; for Incubation time at which the first cleavage or decrease of the full-length peptide was observed, thrombin: 37 °C, time points 2, 5, 10, 30 min
# Excerpt: as §1, §6, §3
# as §4, with “10%. Precursor mass m/z 1570.65 (Glu1-Fibrinopeptide from the calibration mixture) was used to calibrate the MS/MS spectra to a mass tolerance of 0.1 Da.” for “10%.”
# as §7
# [6] = target: trypsin-1 (Homo sapiens, UniProt P07477); assay: Cleavage of peptides by purified trypsin-1, MALDI-TOF/TOF; conditions: 25 nM protease, 10 µM peptide; for Incubation time at which the first cleavage or decrease of the full-length peptide was observed, trypsin-1: 37 °C, time points 2, 5, 10, 30 min
# Excerpt: as §1, §6, §3
# as §4, with “10%. Precursor mass m/z 1570.65 (Glu1-Fibrinopeptide from the calibration mixture) was used to calibrate the MS/MS spectra to a mass tolerance of 0.1 Da.” for “10%.”
# as §7
# [7] = 37 °C, 2, 5, 10 and 30 min, stopped with 2% TFA
# [8] = PAR-based peptides, 37 °C, 2, 5, 10 and 30 min
# Chain of trypsin-2 (P07478 24-247): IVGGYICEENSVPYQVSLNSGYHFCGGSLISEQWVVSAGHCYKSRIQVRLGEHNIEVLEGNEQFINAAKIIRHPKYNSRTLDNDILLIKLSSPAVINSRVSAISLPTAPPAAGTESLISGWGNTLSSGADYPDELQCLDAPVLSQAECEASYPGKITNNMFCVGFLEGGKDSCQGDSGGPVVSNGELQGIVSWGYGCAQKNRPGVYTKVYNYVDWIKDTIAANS
compound,measurement,setting,value
"CC[C@H](C)[C@H](NC(=O)[C@H](CO)NC(=O)[C@H](CC(N)=O)NC(=O)[C@H](CC(C)C)NC(=O)[C@H](Cc1ccc(O)cc1)NC(=O)[C@H](CCCCN)NC(=O)[C@H](CCCCN)NC(=O)[C@@H](NC(=O)[C@H](C)NC(=O)[C@H](CCSC)NC(=O)[C@H](CCC(N)=O)NC(=O)[C@H](CCCCN)NC(=O)[C@H](CCCN=C(N)N)NC(=O)[C@H](CC(C)C)NC(=O)[C@H](CCCN=C(N)N)NC(=O)[C@@H](NC(=O)[C@H](Cc1ccc(O)cc1)NC(=O)[C@H](CC(N)=O)NC(=O)[C@H](CC(=O)O)NC(=O)[C@@H](NC(=O)[C@H](Cc1ccccc1)NC(=O)[C@@H](NC(=O)[C@H](C)NC(=O)[C@H](CC(=O)O)NC(=O)[C@H](CO)NC(=O)[C@@H](N)Cc1c[nH]cn1)C(C)C)[C@@H](C)O)[C@@H](C)O)C(C)C)C(=O)N[C@@H](CC(C)C)C(=O)N[C@@H](CC(N)=O)C(N)=O [VIP, Vasoactive intestinal peptide]","Efficiency of the first cleavage in the peptide, Cathepsin G",[1]; [7],+++ (ultrafast processing within 2 min)
same,"Efficiency of the first cleavage in the peptide, Trypsin-3",[2]; [7],+++ (ultrafast processing within 2 min)
same,"Incubation time at which the first cleavage or decrease of the full-length peptide was observed, trypsin-3",[2],2 min
same,"Efficiency of the first cleavage in the peptide, Neutrophil Elastase",[3]; [7],+++ (ultrafast processing within 2 min)
same,"Incubation time at which the first cleavage or decrease of the full-length peptide was observed, neutrophil elastase",[3],2 min
same,"Efficiency of the first cleavage in the peptide, Trypsin-2",[4]; [7],+++ (ultrafast processing within 2 min)
same,"Incubation time at which the first cleavage or decrease of the full-length peptide was observed, trypsin-2",[4],2 min
same,"Efficiency of the first cleavage in the peptide, Thrombin",[5]; [7],−
same,"Incubation time at which the first cleavage or decrease of the full-length peptide was observed, thrombin",[5],> 30 min
same,"Efficiency of the first cleavage in the peptide, Trypsin-1",[6]; [7],+++ (ultrafast processing within 2 min)
same,"Incubation time at which the first cleavage or decrease of the full-length peptide was observed, trypsin-1",[6],2 min
CC[C@H](C)[C@H](NC(=O)[C@H](CO)NC(=O)[C@@H]1CCCN1C(=O)[C@@H](NC(=O)[C@H](CO)NC(=O)[C@H](CC(=O)O)NC(=O)[C@H](CC(=O)O)NC(=O)CNC(=O)CNC(=O)CNC(=O)[C@@H](NC(=O)[C@H](CO)NC(=O)CNC(=O)[C@H](CO)NC(=O)[C@H](CCC(=O)O)NC(=O)[C@H](CC(=O)O)NC(=O)[C@H](Cc1ccc(O)cc1)NC(=O)[C@@H](NC(=O)[C@H](CO)NC(=O)[C@@H]1CCCN1C(=O)[C@@H](NC(=O)[C@H](CCC(N)=O)NC(=O)[C@@H](NC(=O)CNC(=O)CN)[C@@H](C)O)[C@@H](C)O)C(C)C)[C@@H](C)O)[C@@H](C)O)C(=O)N[C@@H](CC(C)C)C(=O)N1CCC[C@H]1C(=O)N[C@@H](C)C(=O)N1CCC[C@H]1C(=O)N[C@@H](CCCNC(=N)N)C(=O)NCC(=O)N[C@@H](Cc1ccc(O)cc1)C(=O)N1CCC[C@H]1C(=O)NCC(=O)N[C@@H](CCC(N)=O)C(=O)N[C@H](C(=O)N[C@@H](CS)C(=O)N[C@@H](C)C(=O)N[C@@H](CC(N)=O)C(=O)N[C@@H](CC(=O)O)C(N)=O)C(C)C [PAR4-based] (H-GGTQTPSVYDESGSTGGGDDSTPSILPAPRGYPGQVCAND-NH2),"Incubation time at which the first cleavage or decrease of the full-length peptide was observed, cathepsin G","[1]; 37 °C, time points 2, 5, 10, 30 min",> 30 min
same,"TL disarming (D), Cathepsin G",[1]; [8],−
same,"TL unmasking (U), Cathepsin G",[1]; [8],−
same,"Incubation time at which the first cleavage or decrease of the full-length peptide was observed, trypsin-3",[2],2 min
same,"TL disarming (D), Trypsin-3",[2]; [8],−
same,"TL unmasking (U), Trypsin-3",[2]; [8],+++ (ultrafast processing within 2 min)
same,"Incubation time at which the first cleavage or decrease of the full-length peptide was observed, neutrophil elastase",[3],> 30 min
same,"TL disarming (D), Neutrophil Elastase",[3]; [8],−
same,"TL unmasking (U), Neutrophil Elastase",[3]; [8],−
same,"Incubation time at which the first cleavage or decrease of the full-length peptide was observed, trypsin-2",[4],2 min
same,"TL disarming (D), Trypsin-2",[4]; [8],−
same,"TL unmasking (U), Trypsin-2",[4]; [8],+++ (ultrafast processing within 2 min)
same,"Incubation time at which the first cleavage or decrease of the full-length peptide was observed, thrombin",[5],2 min
same,"TL disarming (D), Thrombin",[5]; [8],−
same,"TL unmasking (U), Thrombin",[5]; [8],+++ (ultrafast processing within 2 min)
same,"Incubation time at which the first cleavage or decrease of the full-length peptide was observed, trypsin-1",[6],2 min
same,"TL disarming (D), Trypsin-1",[6]; [8],−
same,"TL unmasking (U), Trypsin-1",[6]; [8],+++ (ultrafast processing within 2 min)
